US20100190706A1, “Stable Non-Aqueous Pharmaceutical Compositions” (NOVO NORDISK A/S, priority 2007, published 2010)
Read-outs that look alike come from different tables or passages of the source.

Legend:
[1] = cited from earlier work
[2] = protic, very hydrophilic and polar solvents; lyophilized from aqueous solution of pH 6.0; cited from earlier work
[3] = Isoelectric point (pI) of the insulinotropic peptide; type: physicochemical
Source text: The pI of a protein can be determined experimentally by electrophoresis techniques such as electrofocusing:
A pH gradient is established in an anticonvective medium, such as a polyacrylamide gel. When a protein is introduced in to the system it will migrate under influence of an electric field applied across the gel. Positive charged proteins will migrate to the cathode. Eventually, the migrating protein reaches a point in the pH gradient where its net electrical charge is zero and is said to be focused. This is the isoelectric pH (pI) of the protein. The protein is then fixed on the gel and stained. The pI of the protein can then be determined by comparison of the position of the protein on the gel relative to marker molecules with known pI values.

| Compound | Dielectricity constant, ε* ([1]; 293.2 Kelvin) | further results |
| --- | --- | --- |
| CO [Methanol] | 33.0 |  |
| CC(O)CO (stereo not drawn) [1,2-propanediol [propylene glycol], 1,2-propanediol] |  | Dielectricity constant, ε* ([1]; 303.2 Kelvin): 27.5 |
| lysozyme: lysozyme lyophilized from aqueous solution of pH 6.0 (Klibanov et al) |  | solubility [2]: more than 10 mg/ml |
| CC(C)O [Isopropanol] | 20.18 |  |
| CCO [Ethanol] | 25.3 |  |
| CC(O)CCO (stereo not drawn) [1,3-butanediol] | 28.8 |  |
| OCCCO [1,3-propanediol] | 35.1 |  |
| Arg34, Lys26(N∈-(γ-Glu(Na-hexadecanoyl)))-GLP-1(7-37) |  | pI [3]: 5.6 |
| O [Water] | 80.1 |  |
